Data from patent US20260285850A1, “SUBSTITUTED OXAZOLIDINONES AND IMIDAZOLINONES AS HERBICIDES” (FMC CORPORATION, priority 2023, published 2026).

Columns and labels:
Assay type in all cases: in vivo
[1] = test system: wheat (Triticum aestivum); test: Test A postemergence application, visual injury rating 0-100
How it was run: (§1)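 Plants in a loam and sand soil blend were treated with each test chemical, in a non-phytotoxic solvent system including surfactant, either sprayed on seeded soil before emergence or applied after emergence at the one- to two-leaf stage. Ten days later in the greenhouse, plants were compared with untreated controls and visually rated from 0 (no effect) to 100 (complete control).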

[2] = test system: horseweed (Erigeron canadensis); test: as above
How it was run: as §1

[3] = test system: blackgrass (Alopecurus myosuroides); test: as above
How it was run: as §1

[4] = test system: ragweed (common ragweed, Ambrosia artemisiifolia); test: as above
How it was run: as §1

[5] = test system: palmer (palmer amaranth, palmer pigweed, Amaranthus palmeri); test: as above
How it was run: as §1

[6] = test system: ryegrass, Italian (italian ryegrass, Lolium multiflorum); test: as above
How it was run: as §1

[7] = test system: corn (Zea mays); test: as above
How it was run: as §1

[8] = test system: soybean (Glycine max); test: as above
How it was run: as §1

[9] = test system: galium (catchweed bedstraw, Galium aparine); test: as above
How it was run: as §1

[10] = test system: oat, wild (wild oat, Avena fatua); test: as above
How it was run: as §1

[11] = test system: green foxtail (Setaria viridis); test: as above
How it was run: as §1

[12] = test system: barnyardgrass (Echinochloa crus-galli); test: as above
How it was run: as §1

[13] = test system: kochia (Bassia scoparia); test: as above
How it was run: as §1

[14] = test system: wheat (Triticum aestivum); test: Test A preemergence soil spray, visual injury rating 0-100; details: 10 days
How it was run: as §1

[15] = test system: blackgrass (Alopecurus myosuroides); test: as above; details: 10 days
How it was run: as §1

[16] = test system: ragweed (common ragweed, Ambrosia artemisiifolia); test: as above; details: 10 days
How it was run: as §1

[17] = test system: palmer (palmer amaranth, palmer pigweed, Amaranthus palmeri); test: as above; details: 10 days
How it was run: as §1

[18] = test system: ryegrass, Italian (italian ryegrass, Lolium multiflorum); test: as above; details: 10 days
How it was run: as §1

[19] = test system: corn (Zea mays); test: as above; details: 10 days
How it was run: as §1

[20] = test system: soybean (Glycine max); test: as above; details: 10 days
How it was run: as §1

[21] = test system: oat, wild (wild oat, Avena fatua); test: as above; details: 10 days
How it was run: as §1

[22] = test system: green foxtail (Setaria viridis); test: as above; details: 10 days
How it was run: as §1

[23] = test system: barnyardgrass (Echinochloa crus-galli); test: as above; details: 10 days
How it was run: as §1

[24] = test system: kochia (Bassia scoparia); test: as above; details: 10 days
How it was run: as §1

[25] = test system: sedge, umbrella (small-flower umbrella sedge, Cyperus difformis); test: Test B flooded paddy test, visual plant response rating 0-100; details: 250 g ai/ha, Flood, applied to paddy water, evaluated after 13 days
How it was run: (§2)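 Compounds applied to standing paddy water (3 cm above soil, maintained for the test duration) on 2-leaf-stage plants; visual rating vs controls at 13 days, greenhouse.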

[26] = test system: barnyardgrass (Echinochloa crusgalli); test: as above; details: 250 g ai/ha, Flood, applied to paddy water, evaluated after 13 days
How it was run: as §2

[27] = test system: rice (Oryza sativa); test: as above; details: 250 g ai/ha, Flood, applied to paddy water, evaluated after 13 days
How it was run: as §2

[28] = test system: ducksalad (Heteranthera limosa); test: as above; details: 250 g ai/ha, Flood, applied to paddy water, evaluated after 13 days
How it was run: as §2

[29] = 62 g ai/ha, postemergence, 10 days, 0 = no effect, 100 = complete control
[30] = Postemergence, 16 g ai/ha, greenhouse 10 days, 0 no effect, 100 complete control
[31] = 62 g ai/ha, 0 = no effect, 100 = complete control

CC(C)OC(=O)C1=CCC(NC(=O)C2(C)CN(c3cc(F)cc(F)c3)C(=O)O2)C1 (stereo not shown) [Compound 100]
95: Plant response rating, Sedge, Umbrella (0 to 100 scale, 0 is no effect and 100 is complete control) [25]
60: Blackgrass plant response rating (0 to 100 scale) [3, 30] | Soybean plant response rating (0 to 100 scale) [8, 30] | Blackgrass plant response rating (0-100) [15, 31] | Ryegrass, Italian plant response rating ([18]; 16 g ai/ha, 0 to 100 scale)
50: Barnyardgrass plant response rating (0 to 100 scale) [12, 30] | Wheat plant response rating ([14]; 16 g ai/ha, 0 to 100 scale)
80: Wheat plant response rating (0-100) [1, 29] | Pigweed, Palmer plant response rating (0-100) [5, 29] | Foxtail, Green plant response rating (0 to 100 scale) [11, 30] | Kochia plant response rating (0 to 100 scale) [13, 30] | Ryegrass, Italian plant response rating (0-100) [18, 31] | Foxtail, Green plant response rating ([22]; 16 g ai/ha, 0 to 100 scale)
90: Blackgrass plant response rating (0-100) [3, 29] | Ryegrass, Italian plant response rating (0-100) [6, 29] | Galium plant response rating (0-100) [9, 29] | Foxtail, Green plant response rating (0-100) [11, 29] | Kochia plant response rating (0-100) [13, 29] | Wheat plant response rating (0-100) [14, 31] | Pigweed, Palmer plant response rating ([17]; 16 g ai/ha, 0 to 100 scale)
40: Horseweed plant response rating (0-100) [2, 29] | Ragweed plant response rating (0-100) [4, 29] | Soybean plant response rating (0-100) [20, 31]
70: Wheat plant response rating (0 to 100 scale) [1, 30] | Ryegrass, Italian plant response rating (0 to 100 scale) [6, 30] | Soybean plant response rating (0-100) [8, 29] | Galium plant response rating (0 to 100 scale) [9, 30] | Oat, Wild plant response rating (0 to 100 scale) [10, 30] | Plant response rating, Barnyardgrass (0 to 100 scale, 0 is no effect and 100 is complete control) [26] | Plant response rating, Rice (0 to 100 scale, 0 is no effect and 100 is complete control) [27]
75: Plant response rating, Ducksalad (0 to 100 scale, 0 is no effect and 100 is complete control) [28]
100: Corn plant response rating (0-100) [7, 29] | Corn plant response rating (0 to 100 scale) [7, 30] | Oat, Wild plant response rating (0-100) [10, 29] | Barnyardgrass plant response rating (0-100) [12, 29] | Pigweed, Palmer plant response rating (0-100) [17, 31] | Foxtail, Green plant response rating (0-100) [22, 31] | Barnyardgrass plant response rating (0-100) [23, 31] | Kochia plant response rating (0-100) [24, 31]
0: Horseweed plant response rating (0 to 100 scale) [2, 30] | Ragweed plant response rating (0 to 100 scale) [4, 30] | Blackgrass plant response rating ([15]; 16 g ai/ha, 0 to 100 scale) | Ragweed plant response rating ([16]; 16 g ai/ha, 0 to 100 scale) | Ragweed plant response rating (0-100) [16, 31] | Soybean plant response rating ([20]; 16 g ai/ha, 0 to 100 scale) | Oat, Wild plant response rating ([21]; 16 g ai/ha, 0 to 100 scale) | Oat, Wild plant response rating (0-100) [21, 31] | Kochia plant response rating ([24]; 16 g ai/ha, 0 to 100 scale)
30: Corn plant response rating ([19]; 16 g ai/ha, 0 to 100 scale) | Corn plant response rating (0-100) [19, 31] | Barnyardgrass plant response rating ([23]; 16 g ai/ha, 0 to 100 scale)
20: Pigweed, Palmer plant response rating (0 to 100 scale) [5, 30]
